The results in this text go back to US20120122848A1, “(+)-3-HYDROXYMORPHINAN DERIVATIVES AS NEUROPROTECTANTS” (GREEN CROSS CORPORATION, priority 2009, published 2012).

Where a name gives a salt, the structure may show the parent alone.

Data set [1] can be described thus: Total antioxidant activity assay (TEAC; metmyoglobin, 2,2′-azinobis(3-ethylbenzoline 6-sulfonate), H2O2). To be noted: 7.5 min at 30° C., absorbance at 734 nm. How it is done:
Briefly, 1 ml of reaction mixture including 2.5 μM metmyoglobin, 150 μM 2,2′-azinobis(3-ethylbenzoline 6-sulfonate), 75 μM H2O2, and 0.84% sample or Trolox (for standard) in PBS was incubated for 7.5 min at 30° C.; then the absorbance at 734 nm was measured. The data are normalized to 1 mM Trolox (TEAC activity) [Kumiko I. et al., The Activation of Dopamine D4 Receptors Inhibits Oxidative Stress-Induced Nerve Cell Death., J. Neurosci., 2001]. The EC50 values were analyzed statistically using Prizm® (GraphPad Software Inc., San Diego, Calif., USA).

For data set [2], the system named is SirT1. Description: Western blotting analysis of SirT1 in glutamate-treated HT22 cells. In kind it is cell-based, mouse. To be noted: 10 mM glutamate, 18 hrs. The procedure:
HT22 cells (1.5×10^7) plated in a 100 mm dish were treated with 10 mM glutamate in the absence or presence of 3-HM.HBr or the compound of Example 26, and incubated for 18 hrs. The cells were collected by scraping in a sample buffer (3% SDS, 1% glycerol, 0.5% 2-mercaptoethanol, 0.05% bromophenol blue, and 80 mM Tris-HCl buffer, pH 6.8, with complete protease inhibitors). The resulting suspention was centrifuged and the pellets thus obtained were re-suspended in the sample buffer. The samples were heated for 3 min in boiling water, fractionated on 4-20% polyacrylamide gels, and electroblotted onto membranes. SirT1 affinity purified polyclonal antibody was used as the primary antibody. Immunoreactive bands were detected with the ECL (Amersham Pharmacia Biotech, Arlington Heights, Ill.) Western blotting detection reagents [Kumiko, I. et al., The Activation of Dopamine D4 Receptors Inhibits Oxidative Stress-Induced Nerve Cell Death., J. Neurosci., 2001, 21(16):6069-6076]. […]
(Immunoblotting shows a protein as a band on a membrane.)

In data set [3] the test system is SirT1. The data set can be described thus: RT-PCR analysis of target gene expression under glutamate toxicity in HT22 cells. In kind it is cell-based, mouse. To be noted: 10 mM glutamate, 18 hrs. The procedure: HT22 cells (1.5×10^7) plated in a 100 mm dish were treated with 10 mM glutamate in the absence or presence of 3-HM.HBr or the compound of Example 26 and incubated for 18 hrs. Oligonucleotide primers used for the PCR amplification were DJ-1 (PARK7), LRRK2 (Leucine-rich repeat kinase 2), PINK1 (PTEN induced putative kinase 1), SirT1 (silent mating type information regulation 2 homolog 1 (S. cerevisiae)), SirT2 (silent mating type information regulation 2 homolog 2 (S. cerevisiae)), and others. PCR products were electrophoresed on 2% agarose gels and detected by ethidium bromide [Kumiko I. et al., The Activation of Dopamine D4 Receptors Inhibits Oxidative Stress-Induced Nerve Cell Death., J. Neurosci., 2001].
FIG. 2A and FIG. 2B show the results of reverse transcription polymerase chain reaction.
In FIG. 2A, Lane 1 is mock, Lane 2 is the group treated with 10 mM Glutamate, and Lane 3 is the group treated with 10 mM Glutamate and 100 uM 3-HM.HBr. […]

For another data set, the system named is HT22 cells. The data set can be described thus: ROS measurement using DCFDA in glutamate-treated HT22 cells. In kind it is cell-based. To be noted: Mus musculus, HT-22, 5 mM glutamate, 8 hrs. How it is done:
HT22 cells (1×10^4) plated in a 96-well plate were treated with 5 mM glutamate in the absence or presence of 3-HM.HBr or the compound of Example 26, and incubated for 8 hrs. After washing with PBS, cells were stained with 10 μM 2,7-dichlorodihydrofluorescein diacetate (DCFDA) in HBSS (Hank's balanced salt solution, Gibco) for 30 min in the dark. Then the cells were washed with PBS twice and extracted with 1% Triton X-100 in PBS for 10 min at 37° C. Fluorescence was recorded with the excitation wavelength of 490 nm and the emission wavelength of 525 nm (Infinite M200, TECAN) [Da-Qing, et. al., Anti-oxidant and anti-inflammatory activities of macelignan in murine hippocampal cell line and primary culture of rat microglia cells, BBRC, 2005, 331, 1264-1269]. The EC50 values were analyzed statistically using Prizm® (GraphPad Software Inc., San Diego, Calif., USA).

Data set [4] is described as follows: Cell cytotoxicity test: protection of HT22 cells against glutamate toxicity (EC50) and cytotoxicity of the compounds (CC50), MTT. In kind it is cell-based, mouse. To be noted: mouse, HT22 cells (mouse hippocampal neuron). Summed up: (§1)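 Cells plated 16 hrs, then exposed to 5 mM glutamate plus a compound concentration series for 24 hrs in DMEM with 10% FBS. Viability by MTT (4 hrs), absorbance at 450 nm; EC50 is protection against glutamate toxicity, CC50 is compound cytotoxicity.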

Data set [5] relates to HT22 cells (mouse hippocampal neuron). Described as above. In kind it is cell-based. To be noted: Mus musculus, HT-22, five millimolar glutamate, 24 hrs, read-out: EC50 (neuroprotective effect against glutamate toxicity). Summed up: as §1

What is called EC50 is the concentration that produces a half-maximal response. `Cc1c(C)c2c(c(C)c1O)CCC(C)(C(=O)O)O2` (centres unmarked) [Trolox] yielded an EC50 in data set [1] of 47500 nM.
The CC50 is the concentration giving 50% cytotoxicity. The low end stands for greater toxicity to the cells, the high end for lower toxicity to the cells. `Oc1ccc(Nc2cc3c(cc2O)[C@]24CCCC[C@@H]2[C@H](C3)NCC4)cc1` [Example 26, (+)-3-Hydroxy-2-(4-hydroxyphenylamino)morphinan TFA salt]: the “SirT1 expression (Western blotting)” value in the data set on SirT1 [2] is on record as “this decreasing was protected”. Moreover, the EC50 stood at 32400 nM in data set [1], 3110 nM in the data set on HT22 cells and 4.59 nM in data set [5]. Further, the “SirT1 expression levels (RT-PCR)” value in the data set on SirT1 [3] is “decreased SirT1 expression levels were elevated”. In data set [4], this molecule yielded a CC50 at 24 h of 2310 nM.
In the case of `Oc1ccccc1Nc1cc2c(cc1O)[C@]13CCCC[C@@H]1[C@H](C2)NCC3` [Example 43, (+)-3-Hydroxy-2-(2-hydroxyphenylamino)morphinan TFA salt], the CC50 at 24 h in data set [4] is 10400 nM. For the same molecule, the EC50 in data set [5] came out at 2.71 nM.
On to `CCC(C)Nc1cc2c(cc1O)[C@]13CCCC[C@@H]1[C@H](C2)NCC3` (stereo partly drawn) [Example 95, (+)-2-(sec-Butylamino)-3-hydroxymorphinan TFA salt], for which the midpoint of cytotoxicity in data set [4], the CC50 at 24 h, lay at 66400 nM. The EC50 in data set [5] turned out to be 131 nM.
Regarding `Oc1cc2c(cc1Nc1ccc(Cl)cc1)C[C@@H]1NCC[C@]23CCCC[C@H]13` [Example 25, (+)-2-(4-Chlorophenylamino)-3-hydroxymorphinan TFA salt], in data set [4], it took 1870 nM to reach half-maximal cytotoxicity (CC50 at 24 h). In addition, the EC50 in data set [5] amounted to 61 nM.
In data set [4], `Oc1cc2c(cc1Nc1cccc3cnccc13)C[C@@H]1NCC[C@]23CCCC[C@H]13` [Example 67, TFA salt] came in with a CC50 at 24 h of 12500 nM. The EC50 in data set [5] stood at 107 nM.
For `CCN(C)c1cc2c(cc1O)[C@]13CCCC[C@@H]1[C@H](C2)NCC3` [Example 103, (+)-2-(Ethylmethylamino)-3-hydroxymorphinan TFA salt], the CC50 at 24 h in data set [4] was more than 100000 nM. Further, in data set [5], the EC50 was 1590 nM.
Turning to `CN(C)c1ccccc1Nc1cc2c(cc1O)[C@]13CCCC[C@@H]1[C@H](C2)NCC3` [Example 126, (+)-2-(2-(Dimethylamino)phenylamino)-3-hydroxymorphinan TFA salt], the CC50 at 24 h in data set [4] amounted to 6100 nM. In data set [5], the EC50 amounted to 12.1 nM.
Molecule `Oc1cc2c(cc1Nc1ccccc1F)C[C@@H]1NCC[C@]23CCCC[C@H]13` [Example 38, (+)-2-(2-Fluorophenylamino)-3-hydroxymorphinan TFA salt] yielded a CC50 at 24 h in data set [4] of 11800 nM. Also, the concentration for a half-maximal effect (EC50) in data set [5] amounted to 211 nM.
On to `CC1CCN(c2cc3c(cc2O)[C@]24CCCC[C@@H]2[C@H](C3)NCC4)CC1` [Example 19, (+)-3-Hydroxy-2-(4-methylpiperidin-1-yl)morphinan TFA salt], for which the CC50 at 24 h in data set [4] is 8040 nM. Besides, in data set [5], the concentration for a half-maximal effect (EC50) is 272 nM.
In data set [4], `COc1ccc(Nc2cc3c(cc2O)[C@]24CCCC[C@@H]2[C@H](C3)NCC4)c(OC)c1` [Example 40, (+)-2-(2,4-Dimethoxyphenylamino)-3-hydroxymorphinan TFA salt] gave a CC50 at 24 h of 7200 nM. In addition, the EC50 in data set [5] turned out to be 33 nM.
Take `Nc1ccccc1Nc1cc2c(cc1O)[C@]13CCCC[C@@H]1[C@H](C2)NCC3` [Example 106, (+)-2-(2-Aminophenylamino)-3-hydroxymorphinan TFA salt]: half-maximal cytotoxicity in data set [4] (CC50 at 24 h) was put at 21800 nM. Also, the EC50 in data set [5] is 36.6 nM.
Molecule `Cc1ccccc1Nc1cc2c(cc1O)[C@]13CCCC[C@@H]1[C@H](C2)NCC3` [Example 41, (+)-3-Hydroxy-2-(2-methylphenylamino)morphinan TFA salt] showed a CC50 at 24 h in data set [4] of 6900 nM. The EC50 in data set [5] came out at 17.8 nM.
Regarding `Oc1cc2c(cc1Nc1ccc(F)cc1)C[C@@H]1NCC[C@]23CCCC[C@H]13` [Example 29, (+)-2-(4-Fluorophenylamino)-3-hydroxymorphinan TFA salt], the CC50 at 24 h in data set [4] is 19900 nM. In addition, the EC50 in data set [5] stood at 33.5 nM.
With `Oc1cc2c(cc1N1CCCCCC1)C[C@@H]1NCC[C@]23CCCC[C@H]13` [Example 17, (+)-2-(Azepan-1-yl)-3-hydroxymorphinan TFA salt], the CC50 at 24 h in data set [4] came to 12200 nM. In addition, the EC50 in data set [5] was determined as 579 nM.
In turn, `CS(=O)(=O)Nc1ccccc1Nc1c(O)cc2c(c1Cl)C[C@@H]1NCC[C@]23CCCC[C@H]13` [Example 133, (+)-1-Chloro-3-hydroxy-2-(2-(methanesulfonamido)phenylamino)morphinan TFA salt] had a CC50 at 24 h in data set [4] of 16500 nM. Also, the EC50 in data set [5] came out at 256 nM.
As to `CCS(=O)(=O)Nc1ccccc1Nc1cc2c(cc1O)[C@]13CCCC[C@@H]1[C@H](C2)NCC3` [Example 111, (+)-2-(2-(Ethanesulfonamido)phenylamino)-3-hydroxymorphinan TFA salt], the CC50 at 24 h in data set [4] was found to be 36500 nM. The EC50 in data set [5] is 475 nM.
As to `CC(C)(C)Nc1cc2c(cc1O)[C@]13CCCC[C@@H]1[C@H](C2)NCC3` [Example 20, (+)-2-(tert-Butylamino)-3-hydroxymorphinan TFA salt], the CC50 at 24 h in data set [4] was more than 100000 nM. In addition, the EC50 in data set [5] came out at 423 nM.
For `COc1ccc(Nc2cc3c(cc2O)[C@]24CCCC[C@@H]2[C@H](C3)NCC4)cc1` [Example 31, (+)-3-Hydroxy-2-(4-methoxyphenylamino)morphinan TFA salt], in that order: 7500 nM and 40.4 nM.
As to `COC(=O)c1ccccc1Nc1cc2c(cc1O)[C@]13CCCC[C@@H]1[C@H](C2)NCC3` [Example 108, (+)-3-Hydroxy-2-(2-(methoxycarbonyl)phenylamino)morphinan TFA salt], in data set [4], the CC50 at 24 h was more than 100000 nM. Besides, the EC50 in data set [5] stood at 7960 nM.
`CCCCNc1cc2c(cc1O)[C@]13CCCC[C@@H]1[C@H](C2)NCC3` [Example 90, (+)-2-Butylamino-3-hydroxymorphinan TFA salt] displayed a CC50 at 24 h in data set [4] of 35000 nM. Also, in data set [5], the EC50 came out at 74.7 nM.
In the case of `CC(C)COC(=O)Nc1ccccc1Nc1cc2c(cc1O)[C@]13CCCC[C@@H]1[C@H](C2)NCC3` [Example 119, (+)-3-Hydroxy-2-(2-(isobutyloxycarbonylamino)phenylamino)morphinan TFA salt], in data set [4], the CC50 at 24 h stood at 8700 nM. Further, in data set [5], the EC50 stood at 211 nM.
